Reference: US20250186458A1, “METHODS FOR THE TREATMENT OF MILD COGNITIVE IMPAIRMENT” (BIOVIE INC., priority 2022, published 2025)

Tests used:
[1] = system: patients with mild or moderate dementia; assay: Exploratory Phase 2 trial NE3107-TRP-001 (ADAS-Cog 11, GRC, PHQ-9); assay type: in vivo, human; set-up: key to ADAS-Cog-11 score at 3M: ADAS-Cog11 score 0-70; higher = more severe cognitive impairment; conditions: for Patient Global Rating of Change (GRC): Month 3, scale −5 to 5; for ADAS-Cog-11 Change: baseline to 3M, decrease = improvement
Method: An exploratory Phase 2 trial of 17α-ethynylandrost-5-ene-3β,7β,17β-triol (NE3107-TRP-001) in 23 patients with mild (n=17) or moderate dementia (n=6) were conducted. Comparisons between baseline and post-intervention (3 months) were evaluated via multi-modal brain magnetic resonance images (MRIs; primary endpoints), measures of glucose and insulin homeostasis, and neuropsychological testing (secondary endpoints).
The interview results were compared with changes from baseline to Month 3 in cognitive functioning as measured by the ADAS-Cog11, and the patient-completed Global Rating of Change (GRC) at Month 3 in the Phase 2 trial (Table 8).
The ADAS-Cog 11 is a performance-based assessment of cognitive function that includes 11 patient-completed tasks that measure word recall, objective/figure naming, command following, constructional praxis, ideational praxis, orientation, word recognition, test direction recall, spoken language, comprehension, and word-finding difficulty. Scores range from 0-70 where higher scores indicate more severe cognitive impairment (i.e., decreases in score over time indicate improvement in cognition). The GRC is a single item that asks patients to rate changes in their condition, abilities, and overall sense of well-being from the start of the trial. Scores range from −5 (“Very much worse”) to 0 (“Unchanged”) to +5 (“Very much better”).

subjects with dementia = assay: Trial in subjects with dementia (CDR 1-2, MMSE 14-24), Aptus positive and negative; assay type: in vivo, human
Description: In a trial, the relationship between Clinical Dementia Rating Scale (CDR) and Mini Mental State Exam (MMSE) scores with measures of obesity, including Body Mass Index (BMI), Waist Circumference (WC), and waist-to-hip ratio (W/H) was explored with administration of 17α-ethynylandrost-5-ene-3β,7β,17β-triol. The trial sought to explore the anti-inflammatory and insulin sensitizing activity of 17α-ethynylandrost-5-ene-3β,7β,17β-triol in subjects with dementia, using inclusion criteria of the CDR levels 1-2 and the MMSE scores of 14-24 for inclusion criteria.
In this trial, the correlation between CDR (1-2) and MMSE (14-24) scores and the presence or absence of amyloid by the Aptus test, and also the presence of absence of metabolic inflammation using markers of obesity and metabolic inflammation was explored.
With Aptus data available for 96 subjects that met the criteria for CDR and MMSE, only 35 subjects (36%) met the Aptus criteria. When measures of obesity were examined, BMI was available for 149 subjects. Due to the age-related decrease in muscle mass, only 60 (40%) of the subjects met the CDC criteria (male BMI >40, Female BMI >35) for obesity. These restrictions would severely limit enrollment. […]

Compound: C#C[C@]1(O)CC[C@H]2[C@@H]3[C@@H](O)C=C4C[C@@H](O)CC[C@]4(C)[C@H]3CC[C@@]21C [17α-ethynylandrost-5-ene-3β,7β,17β-triol, 17-ethynyl-10R, 13S-dimethyl 2,3,4,7, 8R, 9S, 10, 11, 12, 13, 14S, 15, 16, 17-hexadecahydro-1H-cyclopenta[a]phenanthrene-3R, 7R, 17S-triol]
- increase in ADAS-Cog 11 score, where not decreased ([1]; all interviewed patients, 3-month follow up, 3.1 to 3.8 points = clinically significant worsening): < 3.1 points
- mean PHQ-9 score decrease ([1]; change from baseline): 4.3 points
- improvement in depression symptoms (PHQ-9) ([1]; patients with baseline PHQ-9 score ≥5): greatest improvement in depression symptoms
- individual PHQ-9 domains (apathy, depressive symptoms, sleep disturbance, fatigue, eating disorders, low self-esteem) ([1]; patients with baseline PHQ-9 score ≥5 compared to all patients): greater improvement, compared to all patients
- Global Rating of Change (GRC) ([1]; patients with mild dementia, 3 months): improvements on the Global Rating of Change
- ADAS-Cog 11 decrease ([1]; patients with mild dementia, baseline vs 3 months, p=0.0046): 2.6 point
- Patient Global Rating of Change (GRC) ([1]; subject N-02-22): −5
- ADAS-Cog-11 score at 3M ([1]; subject N-02-22, baseline 5.00): 5.67
- ADAS-Cog-11 Change ([1]; subject N-02-22): +0.67
- Patient Global Rating of Change (GRC) ([1]; subject N-03-22): 3.5
- ADAS-Cog-11 score at 3M ([1]; subject N-03-22, baseline 11.33): 6.00
- ADAS-Cog-11 Change ([1]; subject N-03-22): −5.33
- Patient Global Rating of Change (GRC) ([1]; subject N-07-22): 1
- ADAS-Cog-11 score at 3M ([1]; subject N-07-22, baseline 19.33): 14.67
- ADAS-Cog-11 Change ([1]; subject N-07-22): −4.67
- Comparison (ADAS-Cog 11/GRC/Interview) ([1]; subject N-10-22): +/−/NC
- Patient Global Rating of Change (GRC) ([1]; subject N-10-22): −1
- ADAS-Cog-11 score at 3M ([1]; subject N-10-22, baseline 5.00): 2.33
- ADAS-Cog-11 Change ([1]; subject N-10-22): −2.67
- Comparison (ADAS-Cog 11/GRC/Interview) ([1]; subject N-14-22): +/+/NC
- Patient Global Rating of Change (GRC) ([1]; subject N-14-22): 2
- ADAS-Cog-11 score at 3M ([1]; subject N-14-22, baseline 14.00): 9.00
- ADAS-Cog-11 Change ([1]; subject N-14-22): −5.00
- Patient Global Rating of Change (GRC) ([1]; subject N-16-22): 4
- ADAS-Cog-11 score at 3M ([1]; subject N-16-22, baseline 21.00): 11.00
- ADAS-Cog-11 Change ([1]; subject N-16-22): −10.00
- Patient Global Rating of Change (GRC) ([1]; subject N-17-22): 4
- ADAS-Cog-11 score at 3M ([1]; subject N-17-22, baseline 6.67): 9.33
- ADAS-Cog-11 Change ([1]; subject N-17-22): +2.67
- Patient Global Rating of Change (GRC) ([1]; subject N-18-22): 4
- ADAS-Cog-11 score at 3M ([1]; subject N-18-22, baseline 10.00): 8.67
- ADAS-Cog-11 Change ([1]; subject N-18-22): −1.33
- Patient Global Rating of Change (GRC) ([1]; subject N-20-22): 3
- ADAS-Cog-11 score at 3M ([1]; subject N-20-22, baseline 4.00): 3.33
- ADAS-Cog-11 Change ([1]; subject N-20-22): −0.67
- Patient Global Rating of Change (GRC) ([1]; subject N-22-22): 5
- ADAS-Cog-11 score at 3M ([1]; subject N-22-22, baseline 27.67): 29.00
- ADAS-Cog-11 Change ([1]; subject N-22-22): +1.33
- Patient Global Rating of Change (GRC) ([1]; subject N-23-22): 3
- ADAS-Cog-11 score at 3M ([1]; subject N-23-22, baseline 9.33): 10.00
- ADAS-Cog-11 Change ([1]; subject N-23-22): +0.67
- cognition (subjects with dementia): improvements in cognition independent of amyloid beta positivity
